{"source": "patent US4871774A", "about": "“Medical treatment” (The Boots Company PLC, priority 1987, dated 1989)", "key": {"[1]": {"system": "brain DOPAC (turnover of dopamine)", "assay": "Turnover of dopamine in rodent brains by determination of DOPAC concentrations (mouse)", "format": "in vivo, mouse (CD1)", "conditions": "whole brain, 10 mg/kg oral, 2 h", "excerpt": "(7) Measurement of the turnover of dopamine in rodent brains by determination of DOPAC concentrations following drug administration\nInhibition of dopamine reuptake in the brain reduces the rate at which dopamine is synthesised and metabolised (the turnover rate). This can be assessed by measuring the amount of the dopamine metabolite DOPAC (dihydroxyphenylacetic acid) which accumulates in the brains of rats and mice. In addition, the administration of probenecid blocks active transport of DOPAC out of the brain. The subsequent rise in brain DOPAC concentrations is attenuated by drugs which inhibit dopamine reuptake.\nOne group of animals was killed two hours later. […] Aliquots (50 μl) of the clear supernatants were then injected automatically into the chromatographic system for the separation and quantification of DOPAC.\nHigh pressure liquid chromatography (HPLC) combined with electrochemical detection (ECD) was employed to assay DOPAC. […] The controller was set at 20 nA full-scale and output from the cell recorded using a Spectra-Physics 4100 automatic computing integrator. Quantification of DOPAC was effected by the computing integrator after calibration of the HPLC-ECD system using DOPAC of known concentration and including isoprenaline as an internal standard. […]"}, "[2]": {"system": "uptake of radiolabelled dopamine into freshly prepared synaptosomes from rat striatum", "assay": "Inhibition of dopamine uptake in vitro by plasma from humans treated with drug (14C-dopamine, rat striatal synaptosomes)", "format": "biochemical", "conditions": "plasma 3 h after 50 mg oral; for % Inhibition of dopamine uptake: hydrochloride monohydrate", "experimental": "(5) Inhibition of dopamine uptake in vitro by plasma from humans treated with drug\nThe plasma was separated by centrifugation at 2900×g for 20 minutes at room temperature in a Heraeus Christ minicentrifuge and was stored at -20° C. prior to analysis. The samples were thawed in a water bath at 37° C. for 10-15 minutes prior to commencement of the in vitro dopamine uptake assay which was performed as described in (3) above except ^14 C-dopamine was used. The assay was performed twice on plasma from each volunteer."}}, "note": "“And” between values parts separate entries of the source, which are not always exact repeats. Equal entries are not always repeated.", "data": [{"smiles": "CC(C)CC(N(C)C)C1(c2ccc(Cl)cc2)CCC1.Cl.O", "note": "(centres unmarked) [N,N-dimethyl-1-[1-(4-chlorophenyl)cyclobutyl]-3-methylbutylamine hydrochloride monohydrate]", "values": [{"measurement": "Brain DOPAC Levels", "setting": "[1]; A (drug alone), control 74 ± 5", "result": "54 ± 3", "unit": "ng/g wet wt"}, {"measurement": "Brain DOPAC Levels", "setting": "[1]; B (with probenecid 200 mg/kg i.p.), control 116 ± 8", "result": "54 ± 3", "unit": "ng/g wet wt"}, {"measurement": "% Inhibition of dopamine uptake, Mean", "setting": "[2]; Volunteer 1, mean of two assays", "result": 11.6, "unit": "%"}, {"measurement": "% Inhibition of dopamine uptake, Mean", "setting": "[2]; Volunteer 2, mean of two assays", "result": 8.6, "unit": "%"}, {"measurement": "% Inhibition of dopamine uptake, Mean", "setting": "[2]; Volunteer 3, mean of two assays", "result": 15.7, "unit": "%"}, {"measurement": "% Inhibition of dopamine uptake", "setting": "[2]; Volunteer 3, single assays (performed twice)", "result": "13.4% and 17.9%"}, {"measurement": "% Inhibition of dopamine uptake, Mean", "setting": "[2]; Volunteer 4, mean of two assays", "result": 17.9, "unit": "%"}, {"measurement": "% Inhibition of dopamine uptake, Mean", "setting": "[2]; Volunteer 5, mean of two assays", "result": 15.7, "unit": "%"}, {"measurement": "% Inhibition of dopamine uptake", "setting": "[2]; Volunteer 5, single assays (performed twice)", "result": "13.0% and 18.4%"}, {"measurement": "% Inhibition of dopamine uptake, Mean", "setting": "[2]; Volunteer 6, mean of two assays", "result": 16.1, "unit": "%"}, {"measurement": "mean (±SEM) % inhibition of 14C-dopamine uptake by plasma from the six drug-treated volunteers", "setting": "[2]; mean of six volunteers", "result": "14.2±1.4", "unit": "%"}]}]}
